Assay results as given in publication PMC7587962, “Evaluation of Cytotoxicity and α-Glucosidase Inhibitory Activity of Amide and Polyamino-Derivatives of Lupane Triterpenoids” (Molecules, 2020).
Read-outs that look alike come from different tables or passages of the source. Blank lines part the entries; values can stand above or below the compound they belong to.

Key:
[1] = biological target: Yeast α-Glucosidase; assay: Yeast α-glucosidase activity assay; assay type: biochemical, S. cerevisiae; details: pH 6.8, 37 °C, p-nitrophenyl-α-D-glucopyranoside 1 mM; read-out: Yeast α-Glucosidase, IC50 ± SE
Method: (§1) Taken together, these considerations prompted us to evaluate a series of lupanes with amide function or polyamine chain 11, 12, 16, 18, and 22–26 for α-glucosidase inhibition. Initially, they were screened against α-glucosidase of S. cerevisiae as an accessible and high-throughput model. Confirmatory experiments were performed on isolated rough endoplasmic reticulum vesicles from rat liver, which contain neutral α-glucosidases I and II in a membrane-bound form.
In a 96-well flat transparent plate, the 0.12 U/mL enzyme solution (EC 3.2.1.20, expressed in S. cerevisiae, Sigma #G0660, St. Louis, MO, USA) was incubated with test compounds in 67 mM PBS (pH 6.8) at 37 °C for 5 min. Then, p-nitrophenyl-α-D-glucopyranoside (Sigma #N1377, St. Louis, MO, USA) was added to 1 mM final concentration and an increase in absorbance was recorded for 15 min at 405 nm wavelength with Infinite M200 PRO microplate reader (Tecan, Austria). Test compounds were dissolved in DMSO and diluted to the desired concentration in 67 mM PBS (pH 6.8) supplemented with 0.01% Tween 80 to avoid aggregation. Final DMSO concentration was <0.25% in sample wells, and it was also introduced in control and blank wells. […] Due to the absence of normal distribution of data, a Mann–Whitney U-test was used to determine statistical significance versus enzyme control using GraphPad Prism 8.0.1.

[2] = system: Rat Liver ER Neutral α-Glucosidase; assay: Endoplasmic reticulum α-glucosidase activity assay; assay type: biochemical
Description: as §1, with “Betulinic acid inhibits yeast α-glucosidase activity and interferes with N-linked glycan modifications to cell-surface intercellular adhesion molecule-1 (ICAM-1) in human lung carcinoma A549 cells in a similar manner to castanospermine, an inhibitor of endoplasmic reticulum α-glucosidases I and II [66]. […] Taken” for “Taken”
Endoplasmic reticulum was isolated from hepatocytes of decapitated male Sprague-Dawley rats, which were starved overnight and sacrificed the next morning. All experiments were approved by Volgograd regional ethic committee. The whole procedure was performed at 4 °C. In brief, a fresh tissue sample from an animal was washed twice with 10 mL of PBS to remove residual blood. The tissue was placed on a paper towel in order to absorb excess liquid and blood clots, if present. It was cut further into small pieces (1.5–2 cm) and washed once more. […] Homogenate was centrifuged at 1000× g for 10 min at 4 °C. After removal of the floating lipid layer by aspiration, supernatant was separated and centrifuged at 12,000× g for 15 min. at 4 °C. The supernatant fraction, which is the post mitochondrial fraction (PMF), was used for isolation of rough endoplasmic reticulum (RER) enriched microsomes by precipitation with 8 mM CaCl2 added dropwise. The final concentration of CaCl2 was 7 mM. Resulting sample was centrifuged at 8000 g for 10 min. at 4 °C. The supernatant was discarded, and the pellet was suspended in isotonic extraction buffer (0.3 mL of buffer for each g of original tissue). The suspension was homogenized completely to afford RER enriched microsomes. In a 96-well flat transparent plate 25 µL of the isolated RER microsomes were incubated with 50 µL of test compounds in 67 mM PBS (pH 6.8) at 37 °C for 10 min. Then, p-nitrophenyl-α-D-glucopyranoside (Sigma #N1377, St. Louis, MO, USA) was added to 1 mM final concentration and increase in absorbance was recorded for 42 min at 405 nm wavelength with Infinite M200 PRO microplate reader (Tecan, Austria). Concentration of RER microsomes was adjusted to achieve an increase in optical density of ~0.2 in control samples after 30 min. of incubation. Test compounds were prepared as described above for the yeast α-glucosidase assay.

[3] = system: 60 human tumor cell lines; assay: cells
[4] = system: HCT-116; assay: NCI-60 SRB screen: colon cancer HCT-116; assay type: cell-based; details: Homo sapiens, 48 h; HCT-116; single dose 10 µM; read-out: Percentage Cell Growth
[5] = system: T-47D; assay: NCI-60 SRB screen: breast cancer T-47D; assay type: cell-based, human; details: T-47D; single dose 10 µM
[6] = system: MOLT-4; assay: NCI-60 SRB screen: leukemia MOLT-4; assay type: cell-based; details: Homo sapiens, 48 h; MOLT-4; single dose 10 µM; read-out: Percentage Cell Growth
[7] = system: PC-3; assay: NCI-60 SRB screen: prostate cancer PC-3; assay type: cell-based, human; details: PC-3; single dose 10 µM
[8] = system: HOP-92; assay: NCI-60 SRB screen: non-small cell lung cancer HOP-92; assay type: cell-based, human; details: HOP-92; single dose 10 µM
[9] = system: SF-295; assay: NCI-60 SRB screen: CNS cancer SF-295; assay type: cell-based, human; details: SF-295; single dose 10 µM
[10] = system: HT29; assay: NCI-60 SRB screen: colon cancer HT29; assay type: cell-based; details: Homo sapiens, HT-29, 48 h; HT29; single dose 10 µM; read-out: Percentage Cell Growth
[11] = system: SW-620; assay: NCI-60 SRB screen: colon cancer SW-620; assay type: cell-based; details: Homo sapiens, 48 h; SW-620; single dose 10 µM; read-out: Percentage Cell Growth
[12] = system: CAKI-1; assay: NCI-60 SRB screen: renal cancer CAKI-1; assay type: cell-based, human; details: CAKI-1; single dose 10 µM
[13] = system: UO-31; assay: NCI-60 SRB screen: renal cancer UO-31; assay type: cell-based, human; details: UO-31; single dose 10 µM
[14] = system: SK-MEL-5; assay: NCI-60 SRB screen: melanoma SK-MEL-5; assay type: cell-based, human; details: SK-MEL-5; single dose 10 µM
[15] = system: MDA-MB-231/ATCC; assay: NCI-60 SRB screen: breast cancer MDA-MB-231/ATCC; assay type: cell-based; details: Homo sapiens, 48 h; MDA-MB-231/ATCC; single dose 10 µM; read-out: Percentage Cell Growth
[16] = system: CCRF-CEM; assay: NCI-60 SRB screen: leukemia CCRF-CEM; assay type: cell-based; details: Homo sapiens, 48 h, single dose 10 µM, read-out: Percentage Cell Growth
[17] = system: U251; assay: NCI-60 SRB screen: CNS cancer U251; assay type: cell-based; details: Homo sapiens, U-251, 48 h; U251; single dose 10 µM; read-out: Percentage Cell Growth
[18] = system: HL-60(TB); assay: NCI-60 SRB screen: leukemia HL-60(TB); assay type: cell-based; details: Homo sapiens, 48 h; HL-60(TB); single dose 10 µM; read-out: Percentage Cell Growth
[19] = system: MCF7; assay: NCI-60 SRB screen: breast cancer MCF7; assay type: cell-based; details: Homo sapiens, 48 h; MCF7; single dose 10 µM; read-out: Percentage Cell Growth
[20] = system: RPMI-8226; assay: NCI-60 SRB screen: leukemia RPMI-8226; assay type: cell-based; details: Homo sapiens, 48 h; RPMI-8226; single dose 10 µM; read-out: Percentage Cell Growth
[21] = system: NCI-H460; assay: NCI-60 SRB screen: non-small cell lung cancer NCI-H460; assay type: cell-based; details: Homo sapiens, 48 h; NCI-H460; single dose 10 µM; read-out: Percentage Cell Growth
[22] = system: SNB-75; assay: NCI-60 SRB screen: CNS cancer SNB-75; assay type: cell-based, human; details: SNB-75; single dose 10 µM
[23] = system: ACHN; assay: NCI-60 SRB screen: renal cancer ACHN; assay type: cell-based, human; details: single dose 10 µM

SMILES: C=C(C)[C@@H]1CC[C@]2(CO)CC[C@]3(C)[C@H](CC[C@@H]4[C@@]5(C)CCCNC(C)(C)[C@@H]5CC[C@]43C)[C@@H]12 [Compound 23]
IC50 [1]: > 100 µM | Rat Liver ER Neutral α-Glucosidase Inhibition, m ± SD ([2]; 10 μM): −1.34 ± 2.22% | Rat Liver ER Neutral α-Glucosidase Inhibition, m ± SD ([2]; 100 μM): 5.85 ± 8.03%

Rat Liver ER Neutral α-Glucosidase Inhibition, m ± SD ([2]; 10 μM): 5.68 ± 4.68% | Rat Liver ER Neutral α-Glucosidase Inhibition, m ± SD ([2]; 100 μM): 24.09 ± 6.48% | Rat Liver ER Neutral α-Glucosidase Inhibition, m ± SD ([2]; 1 mM): 74.55 ± 3.76%
SMILES: C[C@H]1O[C@H](O[C@H]2[C@H](O)[C@@H](O)[C@@H](O[C@H]3[C@H](O)[C@@H](O)C(O)O[C@@H]3CO)O[C@@H]2CO)[C@H](O)[C@@H](O)[C@@H]1N[C@H]1C=C(CO)[C@@H](O)[C@H](O)[C@H]1O (stereo partly shown) [Acarbose, reference compound]

SMILES: C=C(C)[C@@H]1CC[C@]2(COCCCN)CC[C@]3(C)[C@H](CC[C@@H]4[C@@]5(C)CC[C@H](OCCCN)C(C)(C)[C@@H]5CC[C@]43C)[C@@H]12 [Compound 18]
IC50 [1]: 5.7 ± 1.09 µM | Rat Liver ER Neutral α-Glucosidase Inhibition, m ± SD ([2]; 10 μM): 56.64 ± 4.24 % | Rat Liver ER Neutral α-Glucosidase Inhibition, m ± SD ([2]; 100 μM): 36.51 ± 14.90 %

SMILES: C=C(C)[C@@H]1CC[C@]2(C(=O)N3CCNCC3)CC[C@]3(C)[C@H](CC[C@@H]4[C@@]5(C)CCC(=O)C(C)(C)[C@@H]5CC[C@]43C)[C@@H]12 [Compound 20]
activity at 10 µM ([3]; read-out: Mean Growth, %): 101% | activity at 10 µM ([3]; read-out: Range of Growth, %): 87.8 to 111%

SMILES: C=C(C)[C@@H]1CC[C@]2(C(=O)NCCCCCCN(CCCN)CCCN)CC[C@]3(C)[C@H](CC[C@@H]4[C@@]5(C)CCC(=O)C(C)(C)[C@@H]5CC[C@]43C)[C@@H]12 [Compound 13]
activity at 10 µM ([3]; read-out: Mean Growth, %): 105% | activity at 10 µM ([3]; read-out: Range of Growth, %): 85.8 to 118%

SMILES: C=C(C)[C@@H]1CC[C@]2(C(=O)NCCN(CCNC(=O)OC(C)(C)C)C(=O)OC(C)(C)C)CC[C@]3(C)[C@H](CC[C@@H]4[C@@]5(C)CCC(=O)C(C)(C)[C@@H]5CC[C@]43C)[C@@H]12 [Compound 14]
activity at 10 µM [4]: 17.5% | Percentage Cell Growth [5]: 28.02% | activity at 10 µM [6]: 11.7% | Percentage Cell Growth [7]: 19.12% | Percentage Cell Growth [8]: 8.07% | Percentage Cell Growth [9]: 31.97% | activity at 10 µM [10]: 23.7% | activity at 10 µM [11]: 28.8% | activity at 10 µM ([3]; read-out: Mean Growth, %): 36.6% | Percentage Cell Growth [12]: 18.57% | Percentage Cell Growth [13]: 17.41% | Percentage Cell Growth [14]: −8.44% | activity at 10 µM [15]: -33.8% | activity at 10 µM [16]: 14.9% | activity at 10 µM [17]: 27.9% | activity at 10 µM [18]: -14.3% | activity at 10 µM [19]: 22.2% | activity at 10 µM [20]: 22.2% | activity at 10 µM [21]: 20.6% | Percentage Cell Growth [22]: 23.86% | Percentage Cell Growth [23]: 23.51%
